Data reported in US20160332971A1, “ARYLQUINOLINE, ARYLQUINOLONE AND ARYLTHIOQUINOLONE DERIVATIVES AND USE THEREOF TO TREAT CANCER” (UNIVERSITY OF KENTUCKY RESEARCH FOUNDATION, priority 2015, published 2016).
Like-named read-outs stand apart in the source and are kept apart here.

What was measured:
[1] = test system: Par-4 secretion from mouse fibroblasts; experiment: Par-4 secretion into conditioned medium, quantitative Western blot normalised to CollA1; assay type: cell-based; conditions: for Relative Levels of Par-4 Secretion by Arylquins Administered at 500 nM / fold induction at 0.5 µM: 24 h; for Relative Levels of Par-4 Secretion by Arylquins Administered at 500 nM: mouse fibroblasts, CM; for Par-4 secretory activity (in words): SAR discussion; for fold induction at 0.5 µM: Mus musculus, Fibroblast, read-out: Ratio of Par-4 Secretion by Arylquin 1 Relative to Vehicle
Experimental: Calibration curve developed using fixed amounts (0.05-5 ng) of recombinant TRX-Par-4. […] Therefore the concentration was 0.82 ng/40 μL or 540 pM, In the same fashion, calculation for Par-4 concentration using vehicle (v) was 280 pM.
Biological activity of 3-Arylquinolines. […] After 24 h exposure, the CM and lysates were subjected to quantitative Western blot analysis for Par-4 and collagen (CollA1).
Co-immunoprecipitation and Western blot analysis. Protein extracted from cell lysates was filtered, pre-cleared with 25 μL (bed volume) of protein G-Sepharose beads and immunoprecipitated with 1 μg of respective antibodies. The eluted proteins were resolved by SDS-PAGE, and subjected to Western blot analysis as described previously. Bensch, et al. Nature 1968, 218(5147):1176-1177.
Statistical analyses. All experiments were performed in triplicate to verify the reproducibility of the findings. […] Statistical analyses were carried out with Statistical Analysis System software (SAS Institute, Cary, N.C.) and P values were calculated using the Student t test.

| melting point [°C] | Compound | Relative Levels of Par-4 Secretion by Arylquins Administered at 500 nM ([1]; Table 1) | Par-4 secretory activity (in words) ([1]; 500 nM) | Relative Levels of Par-4 Secretion by Arylquins Administered at 500 nM ([1]; Table 2) | other results |
| --- | --- | --- | --- | --- | --- |
| 142 to 143 | Nc1nc2cccc(F)c2cc1-c1ccccc1F [Arylquin 15b, 5-Fluoro-3-(2-fluorophenyl)quinolin-2-amine] | – | equipotent to 15a | 83.4 | fold induction at 0.5 µM ([1]; 500 nM, Table 2): 2.8 |
| 194 to 196 | Nc1nc2cccc(Cl)c2cc1-c1ccccc1F [Arylquin 15c, 5-Chloro-3-(2-fluorophenyl)quinolin-2-amine] | – | lower Par-4 secretory activity | 63.2 ± 20.5 | fold induction at 0.5 µM ([1]; 500 nM, Table 2): 2.1 |
| 209 to 210 | Nc1nc2cccc(Br)c2cc1-c1ccccc1F [Arylquin 15d, 5-Bromo-3-(2-fluorophenyl)quinolin-2-amine] | – | lower Par-4 secretory activity | 44.6 | fold induction at 0.5 µM ([1]; 500 nM, Table 2): 1.5 |
| 138 to 139 | Nc1nc2ccc(Cl)cc2cc1-c1ccccc1F [Arylquin 15e, 6-Chloro-3-(2-fluorophenyl)quinolin-2-amine] | – | equipotent to 15a | 81.9 ± 11.2 | fold induction at 0.5 µM ([1]; 500 nM, Table 2): 2.8 |
| 178 to 180 | Nc1nc2cc(Cl)ccc2cc1-c1ccccc1F [Arylquin 15f, 7-Chloro-3-(2-fluorophenyl)quinolin-2-amine] | – | reduced activity | <50 | – |
| 114 to 116 | COc1ccc2cc(-c3ccccc3F)c(N)nc2c1 [Arylquin 15g, 3-(2-Fluorophenyl)-7-methoxyquinolin-2-amine] | – | reduced activity | <50 | – |

Further lines, the compound ahead of its results:

| Compound | melting point [°C] | Relative Levels of Par-4 Secretion by Arylquins Administered at 500 nM ([1]; Table 1) | Par-4 secretory activity (in words) ([1]; 500 nM) | Relative Levels of Par-4 Secretion by Arylquins Administered at 500 nM ([1]; Table 2) | other results |
| --- | --- | --- | --- | --- | --- |
| 3-(2,3-Difluorophenyl)-N^7,N^7-dimethylquinoline-2,7-diamine [Arylquin 1i] | – | 88.4 ± 1.3 | comparable to 1a, 1b and 1h | – | – |
| 3-(2,5-Difluorophenyl)-N^7,N^7-dimethylquinoline-2,7-diamine [Arylquin 1l] | – | 64.9 ± 13.1 | – | – | – |
| CN(C)c1ccc2cc(-c3ccccc3F)c(N)nc2c1 [Arylquin 1a] | – | – | superior in potency | – | increase in Par-4 concentrations in the CM from basal levels ([1]; 500 nM, vs vehicle alone): two-fold increase; Par-4 concentration in the CM ([1]; 500 nM, calibration with recombinant TRX-Par-4 (FIG. 3), vehicle 280 pM): 540 pM |
| CN(C)c1ccc2cc(-c3ccccc3Cl)c(N)nc2c1 [Arylquin 1b, 3-(2-Chlorophenyl)-N^7,N^7-dimethylquinoline-2,7-diamine] | 147 to 148 | – | comparable in activity | – | – |
| CN(C)c1ccc2cc(-c3ccccc3Br)c(N)nc2c1 [Arylquin 1c, 3-(2-Bromophenyl)-N^7,N^7-dimethylquinoline-2,7-diamine] | 159 to 160 | 33.6 ± 14.8 | diminished activity | – | – |
| CN(C)c1ccc2cc(-c3cccc(Cl)c3)c(N)nc2c1 [Arylquin 1e, 3-(3-Chlorophenyl)-N^7,N^7-dimethylquinoline-2,7-diamine] | 144 to 145 | 78.3 ± 15.3 | no improvement | – | fold induction at 0.5 µM ([1]; 500 nM, Table 1): 2.6 |
| CN(C)c1ccc2cc(-c3ccc(Cl)cc3)c(N)nc2c1 [Arylquin 1g, 3-(4-Chlorophenyl)-N^7,N^7-dimethylquinoline-2,7-diamine] | 169 to 170 | – | no improvement | – | – |
| CN(C)c1ccc2cc(-c3cccc(F)c3F)c(N)nc2c1 [Arylquin 1h, 3-(2,3-Difluorophenyl)-N^7,N^7-dimethylquinoline-2,7-diamine] | – | 93.2 ± 10.6 | equipotent to the original arylquinoline 1a | – | fold induction at 0.5 µM ([1]; 500 nM, Table 1): 3.1 |
| CN(C)c1ccc2cc(-c3ccc(F)cc3F)c(N)nc2c1 [Arylquin 1j, 3-(2,4-Difluorophenyl)-N^7,N^7-dimethylquinoline-2,7-diamine] | 174 to 175 | 80.8 ± 3.0 | equipotent to the original arylquinoline 1a | – | fold induction at 0.5 µM ([1]; 500 nM, Table 1): 2.7 |
| CN(C)c1ccc2cc(-c3cc(F)ccc3F)c(N)nc2c1 [Arylquin 1k, 3-(2,5-Difluorophenyl)-N^7,N^7-dimethylquinoline-2,7-diamine] | – | 86.2 ± 7.5 | equipotent to the original arylquinoline 1a | – | fold induction at 0.5 µM ([1]; 500 nM, Table 1): 2.9 |
| CN(C)c1ccc2cc(-c3c(F)cccc3F)c(N)nc2c1 [Arylquin 1m, 3-(2,6-Difluorophenyl)-N^7,N^7-dimethylquinoline-2,7-diamine] | 148 to 150 | 44.6 ± 4.6 | did not lead to improved activity | – | fold induction at 0.5 µM ([1]; 500 nM, Table 1): 1.5 |
| CN(C)c1ccc2cc(-c3ccc(F)c(F)c3)c(N)nc2c1 [Arylquin 1n, 3-(3,4-Difluorophenyl)-N^7,N^7-dimethylquinoline-2,7-diamine] | 163 to 164 | 58.4 ± 14.1 | diminished activity relative to 1a | – | fold induction at 0.5 µM ([1]; 500 nM, Table 1): 2 |
| CN(C)c1ccc2cc(-c3cc(F)cc(F)c3)c(N)nc2c1 [Arylquin 1o, 3-(3,5-Difluorophenyl)-N^7,N^7-dimethylquinoline-2,7-diamine] | 160 to 162 | 47.4 ± 16.8 | diminished activity relative to 1a | – | – |
| CN(C)c1ccc2cc3c(nc(N)c4ccccc43)nc2c1 [Arylquin 6, N^9,N^9-Dimethyldibenzo[b,f][1,8]naphthyridine-5,9-diamine] | > 250 | – | biologically inactive | – | – |
| CN(C)c1ccc2cc3c(nc2c1)[nH]c(=O)c1ccccc13 [Arylquin 7, 9-(Dimethylamino)dibenzo[b,f][1,8]naphthyridin-5(6H)-one] | > 250 | – | biologically inactive | – | – |
| CCOC(=O)c1cn2c(n1)c(-c1ccccc1F)cc1ccc(N(C)C)cc12 [Arylquin 8b] | – | – | little Par-4 secretory activity | – | – |
| CN(C)c1ccc2cc(-c3ccccc3F)c(=O)[nH]c2c1 [Arylquin 9] | – | – | diminished Par-4 secretory activity relative to arylquinoline 1a | 33.2 ± 0.9 | Ratio of Par-4 Secretion by Arylquin 1 Relative to Vehicle ([1]; 500 nM, Table 2): 1.1 |
| CSc1nc2cc(N(C)C)ccc2cc1-c1ccccc1F [Arylquin 11, 3-(2-Fluorophenyl)-N,N-dimethyl-2-(methylthio)quinolin-7-amine] | – | – | diminished activity to varying degrees | 75.4 ± 7.0 | fold induction at 0.5 µM ([1]; 500 nM, Table 2): 2.5 |
| CN(C)c1ccc2cc(-c3ccccc3F)c(Cl)nc2c1 [Arylquin 12, 2-Chloro-3-(2-fluorophenyl)-N,N-dimethylquinolin-7-amine] | – | – | activity comparable to but not exceeding that of arylquinoline 1a | 104.5 ± 26.9 | fold induction at 0.5 µM ([1]; 500 nM, Table 2): 3.5 |
| CN1CCN(c2nc3cc(N(C)C)ccc3cc2-c2ccccc2F)CC1 [Arylquin 13b, 3-(2-Fluorophenyl)-N,N-dimethyl-2-(4-methylpiperazin-1-yl)quinolin-7-amine] | – | – | diminished activity to varying degrees | 65.6 ± 3.6 | fold induction at 0.5 µM ([1]; 500 nM, Table 2): 2.2 |
| Nc1nc2cc(C(=O)O)ccc2cc1-c1ccccc1F [Arylquin 15h, 2-Amino-3-(2-fluorophenyl)quinoline-7-carboxylic add] | – | – | reduced activity | <50 | – |
